In patent US20240174663A1, “PYRIMIDINE OR PYRIDINE DERIVATIVES USEFUL AS HCN2 MODULATORS” (King's College London, priority 2021, published 2024) one finds IC50 data, which are given here for 23 compounds.

One experiment deals with T1, HCN2 (Homo sapiens, UniProt Q9UL51).
T1 sequence (Q9UL51 1-889): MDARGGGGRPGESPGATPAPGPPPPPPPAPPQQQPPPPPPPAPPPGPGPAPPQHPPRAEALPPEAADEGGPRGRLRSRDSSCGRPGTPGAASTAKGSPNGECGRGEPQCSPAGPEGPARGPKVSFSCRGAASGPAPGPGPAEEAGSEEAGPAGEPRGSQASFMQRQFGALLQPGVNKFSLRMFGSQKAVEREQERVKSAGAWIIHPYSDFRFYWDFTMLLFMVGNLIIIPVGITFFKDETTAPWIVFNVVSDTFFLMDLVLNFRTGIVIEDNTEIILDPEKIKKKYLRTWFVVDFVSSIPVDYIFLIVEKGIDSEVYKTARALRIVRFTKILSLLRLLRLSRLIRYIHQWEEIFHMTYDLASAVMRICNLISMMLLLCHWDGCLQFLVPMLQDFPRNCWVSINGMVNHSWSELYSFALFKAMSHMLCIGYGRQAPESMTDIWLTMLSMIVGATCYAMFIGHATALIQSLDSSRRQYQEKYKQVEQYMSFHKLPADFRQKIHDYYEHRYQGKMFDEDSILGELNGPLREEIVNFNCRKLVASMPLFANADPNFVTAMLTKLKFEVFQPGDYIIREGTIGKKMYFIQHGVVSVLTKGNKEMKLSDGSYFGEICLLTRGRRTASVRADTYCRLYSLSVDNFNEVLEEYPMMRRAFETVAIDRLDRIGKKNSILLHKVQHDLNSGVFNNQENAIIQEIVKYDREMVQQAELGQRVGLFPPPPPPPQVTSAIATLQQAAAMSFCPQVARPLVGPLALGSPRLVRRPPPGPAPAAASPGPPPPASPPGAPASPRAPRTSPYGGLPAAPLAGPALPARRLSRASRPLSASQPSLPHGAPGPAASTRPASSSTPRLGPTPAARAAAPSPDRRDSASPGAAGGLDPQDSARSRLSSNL
In words: HCN2 assay using PatchXpress 7000A (PX protocol, Example 25). Conditions: room temperature. It is filed as cell-based. Here is the method:
(§1) Example 25: Assay for HCN1 HCN2 and HCN4 Using PatchXpress 7000A
(§2) Solutions for recording HCN currents were:
The membrane voltage was then stepped back to −30 mV for a further 8 seconds.
(§3) The peak inward current measured at the end of the pulse to −110 mV (HCN1 and HCN2) or −130 mV (HCN4) was measured and any leak current subtracted to calculate the HCN current. The HCN current amplitude was measured after each control or compound addition and normalized to the control amplitude (Control A).
(§4) All experiments were performed at room temperature (approximately 22° C.).
(§5) Each test compound concentration was applied to the cell for seven (7) minutes, at which point the next cumulative concentration was applied.

Another experiment deals with T2, HCN4 (Homo sapiens, UniProt Q9Y3Q4).
T2 sequence (Q9Y3Q4 1-1203): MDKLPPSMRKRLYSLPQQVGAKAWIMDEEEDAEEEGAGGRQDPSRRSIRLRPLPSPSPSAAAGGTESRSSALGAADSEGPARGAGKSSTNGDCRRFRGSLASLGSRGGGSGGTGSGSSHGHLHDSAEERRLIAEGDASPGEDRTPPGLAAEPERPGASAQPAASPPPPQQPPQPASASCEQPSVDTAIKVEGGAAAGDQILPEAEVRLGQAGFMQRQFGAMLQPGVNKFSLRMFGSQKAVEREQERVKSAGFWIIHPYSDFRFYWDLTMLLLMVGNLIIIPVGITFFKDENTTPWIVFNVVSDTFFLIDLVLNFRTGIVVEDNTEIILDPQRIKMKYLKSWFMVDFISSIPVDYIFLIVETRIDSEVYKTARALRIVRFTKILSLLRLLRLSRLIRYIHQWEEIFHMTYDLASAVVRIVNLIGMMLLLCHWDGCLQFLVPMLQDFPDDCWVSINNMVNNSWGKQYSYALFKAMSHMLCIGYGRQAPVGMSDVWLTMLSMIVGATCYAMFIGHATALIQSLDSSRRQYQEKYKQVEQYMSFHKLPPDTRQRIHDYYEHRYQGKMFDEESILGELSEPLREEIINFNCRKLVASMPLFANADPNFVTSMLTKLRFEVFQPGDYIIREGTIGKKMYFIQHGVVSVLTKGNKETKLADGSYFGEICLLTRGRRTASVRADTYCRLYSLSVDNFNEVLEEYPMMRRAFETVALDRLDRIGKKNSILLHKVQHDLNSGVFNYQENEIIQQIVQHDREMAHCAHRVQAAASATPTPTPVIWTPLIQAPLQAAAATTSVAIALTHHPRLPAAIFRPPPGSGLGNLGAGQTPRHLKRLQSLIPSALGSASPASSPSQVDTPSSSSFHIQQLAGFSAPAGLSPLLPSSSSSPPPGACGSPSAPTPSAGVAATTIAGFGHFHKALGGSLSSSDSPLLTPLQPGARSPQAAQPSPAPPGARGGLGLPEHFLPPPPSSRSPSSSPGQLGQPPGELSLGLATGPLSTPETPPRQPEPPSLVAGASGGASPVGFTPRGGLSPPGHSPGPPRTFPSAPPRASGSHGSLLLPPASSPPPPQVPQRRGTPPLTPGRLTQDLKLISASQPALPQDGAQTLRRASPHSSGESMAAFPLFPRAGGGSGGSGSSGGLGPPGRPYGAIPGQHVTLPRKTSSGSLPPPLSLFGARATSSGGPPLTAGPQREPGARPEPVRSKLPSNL
As to the kind of experiment: HCN4 assay using PatchXpress 7000A (PX protocol, Example 25). It is filed as cell-based. The conditions noted are these: room temperature. The method, then:
as §1, §2, §3, §4, §5

pIC50: −log10 of the molar value. Counter-ions that a name gives are not always drawn.

The term pIC50 denotes the IC50 on a negative log10 scale, so that one unit is a factor of ten. A higher pIC50 goes with a small IC50. In the case of `N[C@@H](Cc1ncccn1)c1ncccc1-c1noc2ccccc12` [Example 20, (S)-1-[3-(Benzo[d]isoxazol-3-yl)pyridine-2-yl]-2-(pyrimidin-2-yl)ethan-1-amine], the pIC50 is 5.05 on HCN2 and below 4.52 on HCN4.
Taken in the same sequence, the figures for `CN(C)C(=O)c1cccc(C[C@H](N)c2ncccc2-c2noc3ccccc23)n1` [Example 18, (S)-6-{2-Amino-2-[3-(benzoy[d]isoxazol-3-yl)pyridine-2-yl]ethyl}-N,N-dimethylpyridine-2-carboxamide] were 4.95 and below 4.52.
For `Cc1ccc(Br)nc1C[C@H](N)c1ncccc1-c1noc2ccccc12` [Example 22, (S)-1-[3-(Benzo[d]isoxazol-3-yl)pyridine-2-yl]-2-(6-bromo-3-methylpyridine-2-yl)ethan-1-amine hydrochloride], the figures for the pIC50 at HCN2 and against HCN4 were 5.80 and 4.99, respectively.
As for `Cn1nc(-c2ccccc2[C@@H](N)Cc2cccc(C#N)n2)c2ccncc21` [Example 16, (S)-6-{2-Amino-2-[2-(1-methyl-1H-pyrazolo[3,4-c]pyridine-3-yl)phenyl]ethyl}pyridine-2-carbonitrile], the pIC50 at HCN2 was 5.17; at HCN4 it was below 4.52.
`N[C@@H](Cc1ccccn1)c1cccnc1-c1noc2ccccc12` [Example 5, (S)-1-[2-(Benzoy[d]isoxazol-3-yl)pyridine-3-yl}-2-(pyridine-2-yl)ethan-1-amine hydrochloride]: the pIC50 against HCN2 is 4.72.
For the compound `N[C@@H](Cc1ccccn1)c1ncccc1-c1noc2ccccc12` [Example 6, (S)-1-[3-(Benzoy[d]isoxazol-3-yl)pyridine-2-yl}-2-(pyridine-2-yl)ethan-1-amine hydrochloride], the pIC50 is 5.66 on HCN2 and below 4.52 against HCN4.
Consider `N[C@@H](Cc1cccc(OCCO)n1)c1ncccc1-c1noc2ccccc12` [Example 19, (S)-2-[(6-{2-Amino-2-[3-(benzoy[d]isoxazol-3-yl)pyridine-2-yl]ethyl}pyridine-2-yl)oxy]ethano-1-ol], for which the pIC50 on HCN2 is 5.40; against HCN4 it was below 4.52.
On HCN2, `CC(c1ccccn1)[C@H](N)c1ncccc1-c1noc2ccccc12` (single isomer, unassigned) [Example 12, hydrochloride] gave a pIC50 of 5.35.
`CC(c1ccccn1)[C@H](N)c1ncccc1-c1noc2ccccc12` (single isomer, unassigned) [Example 13, hydrochloride] showed a pIC50 on HCN2 of 5.02.
Still for that read-out and setting: the value for `N[C@@H](Cc1ccccn1)c1ccncc1-c1noc2ccccc12` [Example 7, (S)-1-[3-(Benzoy[d]isoxazol-3-yl)pyridine-4-yl}-2-(pyridine-2-yl)ethan-1-amine hydrochloride] was 4.86.
Regarding `Cn1nc(-c2cccnc2[C@@H](N)Cc2ccccn2)c2ccccc21` [Example 3, (S)-1-[3-(1-Methyl-1H-indazol-3-yl)pyridine-2-yl]-2-(pyridin-2-yl)ethan-1-amine hydrochloride], the results for the pIC50 against HCN2 and at HCN4 were 5.24 and below 4.52, respectively.
For the compound `Cc1cccc(C[C@H](N)c2ccccc2-c2nn(C)c3cnccc23)n1` [Example 15, (S)-1-[2-(1-Methyl-1H-pyrazolo[3,4-c]pyridine-3-yl)phenyl]-2-(6-methylpyridine-2-yl)ethan-1-amine hydrochloride], the pIC50 is 5.11 on HCN2 and below 4.52 against HCN4.
Consider `Cn1nc(-c2ccccc2[C@@H](N)Cc2ccccn2)c2cccnc21` [Example 1, (S)-1-[2-(1-Methyl-1H-pyrazolo[3,4-b]pyridine-3-yl)phenyl]-2-(pyridin-2-yl)ethan-1-amine hydrochloride], for which the pIC50 against HCN2 is 4.77.
Same read-out and setting: with `N[C@@H](Cc1ccccn1)c1ccccc1-c1noc2ncccc12` [Example 2, (S)-1-[2-(Isoxazolo[5,4-b]pyridine-3-yl)phenyl]-2-(pyridin-2-yl)ethan-1-amine] the figure was 4.99.
As to `N#Cc1cccc(C[C@H](N)c2ncccc2-c2noc3ccccc23)n1` [Example 10, (S)-6-{2-Amino-2-[3-(benzoy[d]isoxazol-3-yl)pyridine-2-yl]ethyl}pyridine-2-carbonitrile hydrochloride], the pIC50 against HCN2 was 5.72; against HCN4, 4.78.
As to `N[C@@H](Cc1ccccn1)c1ccccc1-c1noc2cnccc12` [Example 14, (S)-1-[2-(Isoxazolo[5,4-c]pyridine-3-yl)phenyl]-2-(pyridin-2-yl)ethan-1-amine], on HCN2, the pIC50 was 4.91.
`Cn1nc(-c2ccccc2[C@@H](N)Cc2ccccn2)c2ccncc21` [Example 8, (S)-1-[2-(1-Methyl-1H-pyrazolo[3,4-c]pyridine-3-yl)phenyl]-2-(pyridine-2-yl)ethan-1-amine hydrochloride]: the values for the pIC50 against HCN2 and at HCN4 were 5.10 and below 4.52, respectively.
As to `Cc1ccc(F)c(C[C@H](N)c2ncccc2-c2noc3ccccc23)n1` [Example 24, (S)-1-[3-(Benzo[d]isoxazol-3-yl)pyridine-2-yl]-2-(3-fluoro-6-methylpyridine-2-yl)ethan-1-amine hydrochloride], the pIC50 on HCN2 is 5.38.
For the compound `NC(=O)c1cccc(C[C@H](N)c2ncccc2-c2noc3ccccc23)n1` [Example 17, (S)-6-{2-Amino-2-[3-(benzoy[d]isoxazol-3-yl)pyridine-2-yl]ethyl}pyridine-2-carboxamide], the pIC50 was 5.19 at HCN2 and below 4.52 against HCN4.
As to `N[C@@H](Cc1ncccc1F)c1ncccc1-c1noc2ccccc12` [Example 23, (S)-1-[3-(Benzo[d]isoxazol-3-yl)pyridine-2-yl]-2-(3-fluoropyridine-2-yl)ethan-1-amine hydrochloride], the figures for the pIC50 on HCN2 and at HCN4 were 5.77 and 5.02, respectively.
Turning to `CN(C)C(=O)CCc1cccc(C[C@H](N)c2ncccc2-c2noc3ccccc23)n1` [Example 21, (S)-3-(6-{2-Amino-2-[3-(benzo[d]isoxazol-3-yl)pyridine-2-ylethyl}priding-2-yl)-N,N-dimethylpropanamide hydrochloride], the values for the pIC50 at HCN2 and against HCN4 were 5.05 and below 4.52, respectively.
`Cc1ccc(-c2noc3ccccc23)c([C@@H](N)Cc2ccccn2)n1` [Example 9, (S)-1-[3-(Benzoy[d]isoxazol-3-yl)-6-methylpyridine-2-yl]-2-(pyridine-2-yl)ethan-1-amine hydrochloride]: the negative logarithm of the IC50 (pIC50) on HCN2 was 5.49; at HCN4 it was below 4.52.
Regarding `Cc1cccc(C[C@H](N)c2ncccc2-c2noc3ccccc23)n1` [Example 11, (S)-1-[3-(Benzoy[d]isoxazol-3-yl)pyridine-2-yl]-2-(6-methylpyridine-2-yl)ethan-1-amine hydrochloride], the pIC50 against HCN2 was 5.29; against HCN4, 4.64.
